Experimental data taken from paper PMC9029893 (International Journal of Molecular Sciences, 2022).

Tests used:
[1] = test system: tissue plasminogen activator (t-PA) release from HUVEC; experiment: t-PA release from HUVEC (ELISA); assay type: cell-based, human; conditions: 24 h, HUVEC supernatants
Experimental: The influence on tissue plasminogen activator release from HUVECs was assessed using an ELISA kit (Abcam, Cambridge, UK). HUVECs seeded at a density of 10,000 per well on 96-well plates were co-incubated with compounds 1–5 at the concentrations of 0.3 and 1.0 mM for an additional 24 h (37 °C, 5% CO2). The cell supernatants were discarded into Eppendorf tubes and preserved at −20° C until analysis. Before the tests, the samples were thawed at room temperature for 15 min, and diluted 2.5-fold with diluent in Elisa kit. The measurements of t-PA concentrations in cell supernatants were conducted according to the manufacturer’s protocol using 3,3’,5,5’-tetramethylbenzidine (TMB) as a chromogenic substrate. The concentration of t-PA in HUVEC supernatants was determined using a calibration curve (R^2 = 0.9936). The results are presented as mean ± SD, n = 6. The CV for the applied method was 7.21%.

HUVEC cells = experiment: HUVEC integrity in RTCA-DP system (normalized cell index); assay type: cell-based, human
Experimental: The effects of sulfonamides 1–8 on the integrity and barrier properties of HUVEC were examined in real-time using a cell electric impedance monitoring system (Real-Time Cell Analyzer; Roche & ACEA Biosciences, Santa Clara, CA, USA), which is based on tracking electrical impedance signals. Any changes in cell status, adhesion, and morphology are expressed by parameter Cell Index (CI). The experimental protocol has been described previously. Briefly, the cells were seeded at a density of 15,000 cells per well on E-16 plates (Roche & ACEA Biosciences, Santa Clara, CA, USA), and cultured until the cells achieved plateau phase. Then, the medium was discarded from each well, and the solutions of the test compounds dissolved in cell culturing medium (100 μL) or pure medium (100 μL, control) were added. The measurements were then carried out for 48 h. The results are presented as mean ± SD of ‘normalized cell index’ (nCI), which is calculated by the division of a CI value at a certain time point by the CI value at a reference time point. The experiments were conducted in multiplicate (n = 4–6). The method was validated and the coefficient of variability (CV) was calculated as 9.17%–15.2%, depending on the measured time point (n = 6).

[2] = test system: clot formation and fibrinolysis in human citrate plasma; experiment: Clot formation and fibrinolysis test (CL-test); assay type: biochemical
Experimental: The effects of the […] on overall hemostasis potential by means of clot formation and fibrinolysis test (CL-test) were further tested based on the continuous measurement of the changes in optical transmittance over time, as described by Kostka et al. and Sikora et al.. These experiments were conducted using 470 µL of three-fold diluted human citrate plasma, 10 µL of the tested compounds, and 10 µL t-PA (final concentration in a sample 220 ng/mL). The clot formation was triggered by thrombin (10 µL, final concentration 0.5 IU/mL). The clot formation and lysis curves were determined at a wavelength of 405 nm with a spectrophotometer (Cecil CE 2021; London, UK) with circulating thermostated water (37 °C) and a Model 300 Electronic Stirrer (Rank Brothers Ltd., Cambridge, UK). The experiments were conducted in multiplicate (n = 5–7), and the results are presented as mean ± SD.
The received graphs were analyzed using dedicated software to determine the kinetic parameters of clot formation, stabilization, and fibrinolysis. The following parameters of clot formation were determined: Tt—thrombin time (s), Fmax—maximum clotting (%T), Tf—plasma clotting time (s), Fvo—initial plasma clotting velocity (%T/min), Sr—area under the clot formation curve (%Txmin). The parameters of the clot stabilization phase comprised Tc—clot stabilization time (s), Sc—area under the curve of stable clot formation (%Txmin). The parameters of fibrinolysis comprised Lmax—maximum lysis (%T), Tl—fibrinolysis time (s), Lvo—initial clot fibrinolysis velocity (%T/min), Sf—area under the fibrinolysis curve (%Txmin). Additionally, the overall potential of clot formation and fibrinolysis (CLAUC, (%Txmin)) and total time of the process of clot formation and fibrinolysis (T, (s)) were also estimated.

## CCCCS(=O)(=O)NC(N)=NC(=N)N(C)C [Compound 1]
[1]; 0.3 mM
  Released t-PA: 2427.2 ± 246.0 pg/mL
[1]; 1.0 mM
  Released t-PA: 1709.5 ± 219.1 pg/mL
HUVEC cells; 0.3 mM, 3 hours
  normalized Cell Index (nCI): 0.832 ± 0.091
HUVEC cells; 0.3 mM, 6 hours
  normalized Cell Index (nCI): 0.981 ± 0.085
HUVEC cells; 0.3 mM, 12 hours
  normalized Cell Index (nCI): 1.177 ± 0.149
HUVEC cells; 0.3 mM, 24 hours
  normalized Cell Index (nCI): 1.207 ± 0.149
HUVEC cells; 0.3 mM, 36 hours
  normalized Cell Index (nCI): 0.875 ± 0.090
HUVEC cells; 1.0 mM, 3 hours
  normalized Cell Index (nCI): 0.440 ± 0.032
HUVEC cells; 1.0 mM, 6 hours
  normalized Cell Index (nCI): 0.676 ± 0.062
HUVEC cells; 1.0 mM, 12 hours
  normalized Cell Index (nCI): 0.791 ± 0.067
HUVEC cells; 1.0 mM, 24 hours
  normalized Cell Index (nCI): 0.940 ± 0.077
HUVEC cells; 1.0 mM, 36 hours
  normalized Cell Index (nCI): 0.858 ± 0.054
[2]; 0.06 mM
  Fmax—maximum clotting: 73.71 ± 5.89 %T
  Fvo—initial plasma clotting velocity: 230.57 ± 34.38 %T/min
  Lmax—maximum lysis: 70.23 ± 10.26 %T
  Lvo—initial clot fibrinolysis velocity: 21.40 ± 6.16 %T/min
  Sc—area under the curve of a stable clot formation: 389.25 ± 160.80 %T x min
  Sf—area under the clot formation curve: 50.97 ± 7.65 %T x min
  Sl (area under the fibrinolysis curve): 193.67 ± 107.75 %T x min
  S—overall potential of clot formation and fibrinolysis (CLAUC): 633.89 ± 269.28 %T x min
  Tc—clot stabilization time: 324.86 ± 130.79 s
  Tf—plasma clotting time: 58.61 ± 9.61 s
  Tl—fibrinolysis time: 253.57 ± 104.13 s
  Tt—thrombin time: 18.97 ± 3.08 s
  T—total time of the process of clot formation and fibrinolysis: 656.01 ± 236.60 s
[2]; 0.3 mM
  Fmax—maximum clotting: 71.97 ± 6.78 %T
  Fvo—initial plasma clotting velocity: 227.86 ± 37.81 %T/min
  Lmax—maximum lysis: 69.09 ± 10.62 %T
  Lvo—initial clot fibrinolysis velocity: 18.53 ± 7.15 %T/min
  Sc—area under the curve of a stable clot formation: 407.13 ± 154.90 %T x min
  Sf—area under the clot formation curve: 52.45 ± 10.08 %T x min
  Sl (area under the fibrinolysis curve): 186.37 ± 104.97 %T x min
  S—overall potential of clot formation and fibrinolysis (CLAUC): 645.95 ± 264.51 %T x min
  Tc—clot stabilization time: 347.71 ± 124.84 s
  Tf—plasma clotting time: 61.36 ± 11.85 s
  Tl—fibrinolysis time: 260.57 ± 95.60 s
  Tt—thrombin time: 16.81 ± 3.05 s
  T—total time of the process of clot formation and fibrinolysis: 686.46 ± 226.50 s
[2]; 0.6 mM
  Fmax—maximum clotting: 70.77 ± 5.62 %T
  Fvo—initial plasma clotting velocity: 217.71 ± 37.42 %T/min
  Lmax—maximum lysis: 69.47 ± 6.67 %T
  Lvo—initial clot fibrinolysis velocity: 18.64 ± 4.38 %T/min
  Sc—area under the curve of a stable clot formation: 388.20 ± 131.19 %T x min
  Sf—area under the clot formation curve: 53.53 ± 5.26 %T x min
  Sl (area under the fibrinolysis curve): 178.97 ± 84.17 %T x min
  S—overall potential of clot formation and fibrinolysis (CLAUC): 620.70 ± 216.54 %T x min
  Tc—clot stabilization time: 338.00 ± 114.76 s
  Tf—plasma clotting time: 63.63 ± 6.31 s
  Tl—fibrinolysis time: 267.71 ± 99.31 s
  Tt—thrombin time: 16.75 ± 4.87 s
  T—total time of the process of clot formation and fibrinolysis: 686.09 ± 216.29 s
[2]; 1.5 mM
  Fmax—maximum clotting: 70.21 ± 3.38 %T
  Fvo—initial plasma clotting velocity: 193.57 ± 47.31 %T/min
  Lmax—maximum lysis: 66.90 ± 8.86 %T
  Lvo—initial clot fibrinolysis velocity: 20.23 ± 6.46 %T/min
  Sc—area under the curve of a stable clot formation: 389.89 ± 172.66 %T x min
  Sf—area under the clot formation curve: 52.36 ± 6.58 %T x min
  Sl (area under the fibrinolysis curve): 159.20 ± 87.92 %T x min
  S—overall potential of clot formation and fibrinolysis (CLAUC): 602.52 ± 263.77 %T x min
  Tc—clot stabilization time: 344.29 ± 149.70 s
  Tf—plasma clotting time: 64.21 ± 9.03 s
  Tl—fibrinolysis time: 236.57 ± 80.20 s
  Tt—thrombin time: 21.60 ± 6.05 s
  T—total time of the process of clot formation and fibrinolysis: 666.67 ± 234.05 s
